Reference: EP4549424A1, “NEW LITHIUM EXTRACTING AGENT AND LIQUID ORGANIC MIXTURE THEREOF, AND METHOD FOR EXTRACTING LITHIUM BY MEANS OF EXTRACTION” (Beijing Salt Lake Technology Development Company Limited, priority 2022, dated 2024)
Converted amounts (≈) assume the structure as drawn. Read-outs that look alike come from different tables or passages of the source.

Experiments:
[1] = Liquid-liquid extraction from aqueous lithium-containing solution, ICP detection: lithium;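 note: component concentrations in the aqueous phase were measured by inductively coupled plasma optical emission spectrometry after shaking and phase separation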
[2] = pH of aqueous phase after extraction or stripping
[3] = Liquid-liquid extraction from aqueous lithium-containing solution, ICP detection: sodium;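 note: sodium measured by inductively coupled plasma optical emission spectrometry in the diluted aqueous phase left after shaking with the organic phase and phase separation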
[4] = Liquid-liquid extraction from aqueous lithium-containing solution, ICP detection: potassium; settings: organic phase and phase ratio per example;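 note: analysis by ICP optical emission spectrometry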
[5] = pH 11.48
[6] = pH 11.48; remark: listed apart in the source
[7] = room temperature; public literature (www.chemicalbook.com; J. Chem. Eng. Data 2008, 53, 8, 1996-1998); cited from earlier work
[8] = physchem
Experimental: The solution loss rate is evaluated through solubility in water.

[9] = feed B1 (cLi 0.807, cNa 56.12 g/L, pH 11.48), organic phase and phase ratio per example
[10] = feed B7 (cLi 0.833, cNa 55.60, cK 5.37 g/L, pH 12.05), 26°C
[11] = feed B7 (cLi 0.833, cNa 55.60, cK 5.37 g/L, pH 12.05), 26°C, organic phase and phase ratio per example
[12] = feed B3 (cLi 0.937, cNa 119.10, cK 43.03 g/L, pH 9.60), organic phase and phase ratio per example

Q: Which “extraction rate for lithium ions” value [1, 9] does the source give for “2-hydroxy-2-phenylacetophenone [Example 41]” here?
A: 69.3%

Q: What about the “separation factor of Li/Na” value [1, 9] of the same compound?
A: 16.8

Q: And the “pH, remaining aqueous phase R1” value ([2]; feed B1 (pH 11.48))?
A: 10.1

Q: What about the “extraction rate for sodium ions” value [3, 9] of the same compound?
A: 11.8%

Q: Which “extraction rate for potassium ions” value [4, 10] does the source give for “2-hydroxy-5-methoxyacetophenone [Example 30]” here?
A: 7.08%

Q: What about the “extraction rate for lithium ions” value [1, 11] of the same compound?
A: 60.26%

Q: And the “separation factor of Li/Na” value [1, 11]?
A: 12.4

Q: And the “pH, remaining aqueous phase R1” value ([2]; feed B7 (pH 12.05))?
A: 10.30

Q: And the “extraction rate for sodium ions” value [3, 11]?
A: 10.86%

Q: Which results are given for 2-hydroxydibenzophenone [Example 1]?
A: extraction rate for lithium ions ([1]; pH 11.48): 68.2%; separation factor of Li/Na ([1]; pH 11.48): 19.2; pH, remaining aqueous phase R1 ([2]; feed B1 (pH 11.48)): 10.12; cNa, remaining aqueous phase R1 [5]: 50.50 g/L; cLi, remaining aqueous phase R1 [6]: 0.257 g/L; extraction rate for sodium ions ([3]; pH 11.48): 10%

Q: With `O=C(c1ccccc1)c1ccc(O)cc1O` [2,4-dihydroxydibenzophenone] as the compound, how does the “solubility in pure water” value [7] read?
A: 700 µg/mL (≈ 3270 µM)

Q: With `COc1ccc(C(=O)c2ccccc2)c(O)c1` [2-hydroxy-4-methoxydibenzophenone] as the compound, how does the solubility ([8]; water) read?
A: < 1000 µg/mL

Q: Which “solubility in pure water” value [8] does the source give for `CCCCCCCCOc1cc(O)c(C(=O)c2ccccc2)cc1[N+](=O)[O-]` [2-hydroxy-4-octyloxy-5-nitrodibenzophenone] here?
A: 10 µg/mL (≈ 26.9 µM)

Q: Which “solubility in pure water” value [8] does the source give for `CCCCCCCCOc1ccc(C(=O)c2ccccc2)c(O)c1[N+](=O)[O-]` [4-octyloxy-3-nitro-2-hydroxydibenzophenone] here?
A: 10 µg/mL (≈ 26.9 µM)

Q: Which “solubility in pure water” value [8] does the source give for `CCCCCOc1ccc(C(=O)c2ccccc2)c(O)c1` [4-pentyloxy-2-hydroxydibenzophenone] here?
A: 50 µg/mL (≈ 176 µM)

Q: For `O=C(c1ccccc1)c1cc([N+](=O)[O-])c(OCc2ccccc2)cc1O` [Example 12, 4-benzyloxy-5-nitro-2-hydroxydibenzophenone], which “extraction rate for potassium ions” value ([4]; feed B3 (cLi 0.937, cNa 119.10, cK 43.03 g/L, pH 9.60)) is on record?
A: 8.3%

Q: And the “extraction rate for lithium ions” value [1, 12]?
A: 85.7%

Q: What about the “separation factor of Li/K” value [1, 12] of the same compound?
A: 66.0

Q: What about the “separation factor of Li/Na” value [1, 12] of the same compound?
A: 53.4

Q: What about the “pH, remaining aqueous phase R1” value ([2]; feed B3 (pH 9.60)) of the same compound?
A: 8.66

Q: And the “extraction rate for sodium ions” value [3, 12]?
A: 10.1%

Q: For `CC(=O)c1cc(I)ccc1O` [Example 39, 2-hydroxy-5-iodoacetophenone], which “extraction rate for potassium ions” value [4, 10] is on record?
A: 8.5%

Q: What about the “extraction rate for lithium ions” value [1, 11] of the same compound?
A: 48%

Q: And the “separation factor of Li/Na” value [1, 11]?
A: 8

Q: And the “extraction rate for sodium ions” value [3, 11]?
A: 10.3%

Q: Which “solubility in pure water” value [7] does the source give for `O=C(CC(=O)C(F)(F)F)c1ccccc1` [benzoyltrifluoroacetone] here?
A: 240 µg/mL (≈ 1110 µM)
